Measured values published in US9127164B2, “Fluorescent dyes and uses thereof” (ALMAC SCIENCES (SCOTLAND) LIMITED, priority 2005, dated 2015).
Where two headings read alike, the source gives them in different places. Peptide text beside a SMILES is read from it. * marks the point of attachment. Propanoyl(3-(9AA-2-yl)) = Nc1c2ccccc2nc2ccc(CCC(=O)*)cc12

Key:
[1] = Fluorescence lifetime by time-correlated single photon counting (Edinburgh Instruments FLS920); type: physicochemical; settings: for Lifetime* (ns): Table 3, molecules synthesised; for Fluorescence Lifetime (nsecs) in PBS pH 7.4: excited at 405 nm, detection at 450 nm, 10 mM phosphate buffered saline pH 7.4; for Lifetime (ns): Table 2, 9-aminoacridine derivatives
Method: Fluorescence lifetimes were determined by time-correlated single photon counting using an Edinburgh Instruments FLS920 fluorimeter. Samples were excited at 405 nm with detection at 450 nm. Measurements were recorded in 10 mM phosphate buffered saline pH 7.4.
Excitation wavelength 405 nm and emission wavelength 450 nm.

[2] = Fluorescence emission spectra / intensity; type: physicochemical; settings: for fluorescence emission intensity compared with N-methyl acridone: excitation at 405 nm, 140 mM NaCl, 10 mM phosphate buffer pH 7.4; for Relative intensity Ex405 nm, Emmax: relative to 9-aminoacridine = 1
Method: Fluorescence emission spectra of 10-methyl-9(10H)-thioacridone (N-methyl thioacridone) and 10-methyl-9(10H)-acridone (N-methylacridone) in 140 mM NaCl, 10 mM phosphate buffer pH 7.4 upon excitation at 405 nm, were obtained. The thioacridone concentration is 500 nM and the 10-methyl-9(10H)-acridone (N-methylacridone) concentration is 100 nM.
Fluorescence emission spectra of 9-aminoacridine and 10-methyl-9(10H)-acridone (N-methylacridone) upon excitation at 405 nm. Both compounds at a concentration of 100 nM in 140 mM NaCl, 10 mM phosphate buffer pH 7.4, were obtained.
Fluorescence emission spectrum of (Acridin-9-ylamino)acetic acid ethyl ester at 100 nM concentration in 140 mM NaCl, 10 mM phosphate buffer pH 7.4 upon excitation at 405 nm is shown in FIG. 4.

[3] = Fluorescence emission spectra / intensity; type: physicochemical
[4] = molecular target: T1, Caspase-3 recombinant enzyme (Homo sapiens, UniProt P42574); assay: Fluorescence lifetime based Caspase-3 cleavage assay of dye-labelled DEVDSW peptide; type: biochemical; settings: 1 uM substrate
T1 construct: purchased Calbiochem
T1 sequence (P42574 29-175 limits assumed): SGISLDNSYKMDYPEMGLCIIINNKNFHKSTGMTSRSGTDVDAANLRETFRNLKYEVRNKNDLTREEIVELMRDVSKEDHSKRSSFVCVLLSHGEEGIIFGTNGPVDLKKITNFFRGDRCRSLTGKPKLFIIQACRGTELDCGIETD
T1 sequence (P42574 176-277 limits assumed): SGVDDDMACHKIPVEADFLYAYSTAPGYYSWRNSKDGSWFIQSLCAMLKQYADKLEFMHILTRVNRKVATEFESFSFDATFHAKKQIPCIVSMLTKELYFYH
Method: The 9-aminoacridine labelled peptide substrate, AA-DEVDSW (1 uM concentration in […] buffer pH 7.4 containing 10% sucrose, 0.1% CHAPS, 100 mM NaCl, 1 mM EDTA, 10 mM DTT) was employed in a biochemical assay using Caspase-3 recombinant enzyme (50 U and 20 U) at 30° C. The assay mixture was analysed at time intervals using an Edinburgh Instruments Fluorescence Lifetime Plate Reader. […] The data could also be easily viewed as a change in percentage cleavage over time, confirming that the reaction was progressing to completion after 90 minutes when 50 units of caspase 3 was employed (see FIGS. 8 and 9).
• Buffer: 20 mM HEPES buffer pH7.4 containing 10% sucrose, 0.1% CHAPS, 100 mM NaCl, 1 mM EDTA, 10 mM DTT • Substrate solution: 10 uM 3-(9-aminoacridin-2-yl) propionyl-DEVDSW in buffer. • Product solution: 10 uM 3-(9-aminoacridin-2-yl) propionyl-DEVDSK in buffer. • Enzyme solution: 10 U/ul in buffer. Procedure
To the well of a 96-well plate was added buffer (88 ul), substrate solution (10 ul, 1 uM final conc.) and enzyme (2 ul for 20 U). Reactions were performed in triplicate and also at varying enzyme concentrations. The reaction progress was followed at time intervals using an Edinburgh Instruments Fluorescence Lifetime Plate Reader against wells containing product and substrate standards.
The partially quenched 9-aminoacridine-labelled peptide substrate, 3-(9-aminoacridin-2-yl) propionyl-DEVDSW, was employed in a biochemical enzymatic cleavage assay using recombinant Caspase-3 enzyme purchased from Calbiochem. The assay was carried out using 1 uM substrate concentration in 20 mM HEPES buffer pH 7.4 containing 10% sucrose, 0.1% CHAPS, 100 mM NaCl, 1 mM EDTA, 10 mM DTT, in the presence of either 20 or 50 units of enzyme (100 ul final volume). The assay mixture was analysed at time intervals using an Edinburgh Instruments Fluorescence Lifetime Plate Reader. […] The deviation in fluorescence lifetime from that stated above was a consequence of the buffer system.

[5] = 20 mM HEPES buffer pH 7.4, 20 or 50 units of enzyme

## CC(C)(C)OC(=O)/C=C/c1ccc2nc3ccccc3c(N)c2c1 [3-(9-Amino-acridin-2-yl)-acrylic acid tert-butyl ester]
[1]
  Lifetime* (ns): 11.2 ns

## CC(C)[C@H](NC(=O)[C@H](CCC(=O)O)NC(=O)[C@H](CC(=O)O)NC(=O)CCc1ccc2nc3ccccc3c(N)c2c1)C(=O)N[C@@H](CC(=O)O)C(=O)N[C@@H](CO)C(=O)N[C@@H](CCCCN)C(=O)O [3-(9-Amino-acridin-2-yl)-propionyl-DEVDSK] ({Propanoyl(3-(9AA-2-yl))}-DEVDSK-OH)
[1]
  fluorescence lifetime: 17.7 ns
  Lifetime* (ns): 17.7 ns
[2]
  fluorescence properties (emission spectrum, intensity, lifetime) compared with 9-aminoacridine: comparable emission spectrum and fluorescence intensity to that of 9-aminoacridine

## CC(C)[C@H](NC(=O)[C@H](CCC(=O)O)NC(=O)[C@H](CC(=O)O)NC(=O)CCc1ccc2nc3ccccc3c(N)c2c1)C(=O)N[C@@H](CC(=O)O)C(=O)N[C@@H](CO)C(=O)N[C@@H](Cc1c[nH]c2ccccc12)C(=O)O [3-(9-Amino-acridin-2-yl)-propionyl-DEVDSW] ({Propanoyl(3-(9AA-2-yl))}-DEVDSW-OH)
[3]; tryptophan (W) containing labelled peptide versus lysine (K) containing labelled peptide
  fluorescence intensity quenched by tryptophan: 75%
[1]
  fluorescence lifetime: 7.6 ns
  Lifetime* (ns): 7.7 ns
[4]; [5]
  fluorescence lifetime of reaction mixture after cleavage: 15.5 ns
  fluorescence lifetime of reaction mixture at start of reaction: 8.5 ns
[4]; 50 units of caspase 3 enzyme, 20 mM HEPES buffer pH 7.4
  time at which cleavage reaction was progressing to completion: 60 min

## CC(C)(C)OC(=O)CCc1ccc2nc3ccccc3c(N)c2c1 [3-(9-amino-acridin-2-yl)-propionic acid tert-butyl ester]
[1]
  Lifetime* (ns): 16.7 ns
[2]
  fluorescence properties (emission spectrum, intensity, lifetime) compared with 9-aminoacridine: comparable to the parent 9-aminoacridine

## Nc1c2ccccc2nc2ccc(CCC(=O)O)cc12 [3-(9-amino-acridin-2-yl)-propionic acid]
[1]
  Lifetime* (ns): 17.0 ns
[2]
  fluorescence properties (emission spectrum, intensity, lifetime) compared with 9-aminoacridine: comparable to the parent 9-aminoacridine

## CCOC(=O)CNc1c2ccccc2nc2ccccc12 [(Acridin-9-ylamino)acetic acid ethyl ester]
[1]; Excitation wavelength 405 nm and emission wavelength 450 nm
  fluorescence lifetime: 14.9 ns

## Cn1c2ccccc2c(=O)c2ccccc21 [N-methyl acridone, 10-methyl-9(10H)-acridone, reference compound]
[1]
  Fluorescence Lifetime (nsecs) in PBS pH 7.4: 13.9 nsecs

## Cn1c2ccccc2c(=S)c2ccccc21 [N-methyl thioacridone, 10-methyl-9(10H)-thioacridone, reference compound]
[2]
  fluorescence emission intensity compared with N-methyl acridone: considerably less fluorescent

## Nc1c2ccccc2nc2ccccc12 [Number 1, 9-aminoacridine, reference compound]
[1]
  Lifetime (ns): 15 ns
  Fluorescence Lifetime (nsecs) in PBS pH 7.4: 16.0 nsecs
[2]
  Relative intensity Ex405 nm, Emmax: 1
  fluorescence emission intensity compared with N-methyl acridone: considerably brighter

## Nc1ccc2nc3ccccc3c(N)c2c1 [Number 6]
[3]; free amino dye, no acetylation
  fluorescence (in words): non-fluorescent
[1]
  Lifetime (ns): Not fluorescent
[2]
  Relative intensity Ex405 nm, Emmax: Not fluorescent

## CC(=O)Nc1ccc2nc3ccc(N)cc3c(N)c2c1 [Number 7]
[1]
  Lifetime (ns): multiexponential
[2]
  Relative intensity Ex405 nm, Emmax: Not fluorescent
